Experimental data from PubChem BioAssay (NCI).
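Protocol summary: plate cells (96-well), add compound at 5 concentrations, incubate 48 h, interpolate endpoints linearly. TGI: total growth inhibition.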

Legend:
Assay in all cases: NCI tumour cell line growth inhibition, 48 h
[1] = system: A498 renal
[2] = system: ACHN renal
[3] = system: BT-549 breast
[4] = system: CCRF-CEM leukemia
[5] = system: COLO 205 colon
[6] = system: DU-145 prostate
[7] = system: EKVX NSCLC
[8] = system: HCC-2998 colon
[9] = system: HCT-116 colon
[10] = system: HCT-15 colon
[11] = system: HL-60(TB) leukemia
[12] = system: HOP-62 NSCLC
[13] = system: HS 578T breast
[14] = system: HT29 colon
[15] = system: K-562 leukemia
[16] = system: KM12 colon
[17] = system: LOX IMVI melanoma
[18] = system: MCF7 breast
[19] = system: MDA-MB-435
[20] = system: NCI-H226 lung
[21] = system: NCI-H23 lung
[22] = system: NCI-H460 lung
[23] = system: NCI/ADR-RES ovarian
[24] = system: OVCAR-3 ovarian
[25] = system: OVCAR-4 ovarian
[26] = system: OVCAR-5 ovarian
[27] = system: OVCAR-8 ovarian
[28] = system: RPMI-8226 leukemia
[29] = system: SF-268 CNS
[30] = system: SF-295 CNS
[31] = system: SK-MEL-5 melanoma
[32] = system: SK-OV-3 ovarian
[33] = system: SN12C renal
[34] = system: SNB-19 CNS
[35] = system: SW-620 colon
[36] = system: T-47D breast
[37] = system: U251 CNS
[38] = system: UACC-62 melanoma

Nc1ccc2[nH]c(C(=O)N3CC(CCl)c4c3cc(N)c3ccccc43)cc2c1 (stereo not drawn)
TGI [1]: 0.0288 µM | TGI [2]: 0.0103 µM | TGI [3]: < 0.0244 µM | TGI [4]: > 100 µM | TGI [5]: 0.0223 µM | TGI [6]: < 0.01 µM | TGI [7]: 0.0313 µM | TGI [8]: < 0.01 µM | TGI [9]: 1.09 µM | TGI [10]: 1.28 µM | TGI [11]: 0.0162 µM | TGI [12]: 0.0556 µM | TGI [13]: 0.057 µM | TGI [14]: < 0.0229 µM | TGI [15]: > 100 µM | TGI [16]: 0.0714 µM | TGI [17]: 0.0145 µM | TGI [18]: 0.153 µM | TGI [19]: 0.025 µM | TGI [20]: < 0.01 µM | TGI [21]: < 0.01 µM | TGI [22]: < 0.01 µM | TGI [23]: < 0.01 µM | TGI [24]: > 100 µM | TGI [25]: < 0.01 µM | TGI [26]: > 100 µM | TGI [27]: 0.0236 µM | TGI [28]: < 0.0255 µM | TGI [29]: < 0.01 µM | TGI [30]: < 0.01 µM | TGI [31]: < 0.0414 µM | TGI [32]: 1.21 µM | TGI [33]: 0.0325 µM | TGI [34]: < 0.0489 µM | TGI [35]: 0.124 µM | TGI [36]: 0.455 µM | TGI [37]: 0.147 µM | TGI [38]: 0.0101 µM
